The values that follow come from patent US8119628B2, “Pyrrolidine fused indolobenzadiazepine HCV NS5B inhibitors” (Bristol-Myers Squibb Company, priority 2008, dated 2012).

The subject of one experiment is HCV replicon cells. Put plainly: HCV FRET assay in HCV replicon cells. It counts as cell-based. As to conditions: Hepatitis C virus. From the text: FRET Assay Preparation. To perform the HCV FRET screening assay, 96-well cell culture plates were used. The FRET peptide (Anaspec, Inc.) (Taliani et al., Anal. Biochem. 1996, 240, 60-67) contains a fluorescence donor, EDANS, near one end of the peptide and an acceptor, DABCYL, near the other end. The fluorescence of the peptide is quenched by […] resonance energy transfer (RET) between the donor and the acceptor, but as the NS3 protease cleaves the peptide the products are released from RET quenching and the fluorescence of the donor becomes apparent. The assay reagent was made as follows: 5× cell Luciferase cell culture lysis reagent from Promega (#E153A) diluted to 1× with dH2O, NaCl added to 150 mM final, the FRET peptide diluted to 20 uM final from a 2 mM stock.
To prepare plates, HCV replicon cells, with or without a Renilla luciferase reporter gene, were trypsinized and placed into each well of a 96-well plate with titrated test compounds added in columns 3 through 12; columns 1 and 2 contained a control compound (HCV protease inhibitor), and the bottom row contained cells without compound. The plates were then placed in a CO2 incubator at 37° C.
Assays. Subsequent to addition of the test compounds described above (FRET Assay Preparation), at various times the plate was removed and Alamar blue solution (Trek Diagnostics, #00-100) was added per well as a measure of cellular toxicity. After reading in a Cytoflour 4000 instrument (PE Biosystems), plates were rinsed with PBS and then used for FRET assay by the addition of 30 ul of the FRET peptide assay reagent described above (FRET Assay Preparation) per well. The plate was then placed into the Cytoflour 4000 instrument which had been set to 340 excite/490 emission, automatic mode for 20 cycles and the plate read in a kinetic mode. Typically, the signal to noise using an endpoint analysis after the reads was at least three-fold. Alternatively, after Alamar blue reading, plates were rinsed with PBS, 50 ul of DMEM (high glucose) without phenol red was added and plates were then used for luciferase assay using the Promega Dual-Glo Luciferase Assay System.
Compound analysis was determined by quantification of the relative HCV replicon inhibition and the relative cytotoxicity values. To calculate cytoxicity values, the average Alamar Blue fluorescence signals from the control wells were set as 100% non-toxic. The individual signals in each of the compound test wells were then divided by the average control signal and multiplied by 100% to determine […]. To calculate the HCV replicon inhibition values, an average background value was obtained from the two wells containing the highest amount of HCV protease inhibitor at the end of the assay period. These numbers were similar to those obtained from naïve Huh-7 cells.
The background numbers were then subtracted from the average signal obtained from the control wells and this number was used as 100% activity. The individual signals in each of the compound test wells were then divided by the averaged control values after background subtraction and multiplied by 100% to determine percent activity. EC50 values for a protease inhibitor titration were calculated as the concentration which caused a 50% reduction in FRET or luciferase activity. The two numbers generated for the compound plate, percent cytoxicity and percent activity were used to determine compounds of interest for further analysis.
(In antiviral work, replicon cells carry a viral genome segment that copies itself.)

A further experiment deals with T1, HCV NS5B (Hepatitis C virus genotype 1b, UniProt Q9WMX2).
T1 construct: The protein was expressed with an 18 amino acid C-terminal truncation to enhance the solubility; made in house; host or cells: E. coli BL21(DE3)
T1 sequence (Q9WMX2 2420-2992): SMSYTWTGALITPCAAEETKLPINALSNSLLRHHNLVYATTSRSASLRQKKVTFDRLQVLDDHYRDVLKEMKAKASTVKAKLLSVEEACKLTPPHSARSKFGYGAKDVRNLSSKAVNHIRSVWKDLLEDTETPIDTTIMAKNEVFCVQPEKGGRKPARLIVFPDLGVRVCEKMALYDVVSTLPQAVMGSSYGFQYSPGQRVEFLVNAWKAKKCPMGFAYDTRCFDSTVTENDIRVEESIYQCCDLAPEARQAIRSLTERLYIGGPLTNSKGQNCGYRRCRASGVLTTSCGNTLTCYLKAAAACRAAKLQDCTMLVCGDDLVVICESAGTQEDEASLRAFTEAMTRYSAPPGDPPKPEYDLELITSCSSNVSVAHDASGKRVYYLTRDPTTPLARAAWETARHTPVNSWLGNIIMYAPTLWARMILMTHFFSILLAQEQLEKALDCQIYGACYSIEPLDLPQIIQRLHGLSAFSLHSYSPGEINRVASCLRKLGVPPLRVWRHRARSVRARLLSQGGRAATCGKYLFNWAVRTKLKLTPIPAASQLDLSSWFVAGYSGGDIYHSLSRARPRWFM
Put plainly: Modified HCV NS5B RdRp enzyme assay (preincubation protocol). It counts as biochemical. As to conditions: HCV NS5B RdRp genotype 1b. Here is the method: HCV NS5B RdRp cloning, expression, and purification. The cDNA encoding the NS5B protein of HCV, genotype 1b, was cloned into the pET21a expression vector. The protein was expressed with an 18 amino acid C-terminal truncation to enhance the solubility. The E. coli competent cell line BL21(DE3) was used for expression of the protein. Cultures were grown at 37° C. for ˜4 hours until the cultures reached an optical density of 2.0 at 600 nm. The cultures were cooled to 20° C. and induced with 1 mM IPTG. Fresh ampicillin was added to a final concentration of 50 μg/ml and the cells were grown overnight at 20° C.
Cell pellets (3 L) were lysed for purification to yield 15-24 […] of purified NS5B. The lysis buffer consisted of 20 mM Tris-HCl, pH 7.4, 500 mM NaCl, 0.5% triton X-100, 1 mM DTT, 1 mM EDTA, 20% glycerol, 0.5 mg/ml lysozyme, 10 mM MgCl2, 15 ug/ml deoxyribonuclease I, and Complete TM protease inhibitor tablets (Roche). After addition of the lysis buffer, frozen cell pellets were resuspended using a tissue homogenizer. To reduce the viscosity of the sample, aliquots of the lysate were sonicated on ice using a microtip attached to a Branson sonicator. The sonicated lysate was centrifuged at 100,000×g for 1 hr at 4° C. and filtered through a 0.2 μm filter unit (Corning).
The protein was purified using three sequential chromatography steps: Heparin sepharose CL-6B, polyU sepharose 4B, and Hitrap SP sepharose (Pharmacia). The chromatography buffers were identical to the lysis buffer but contained no lysozyme, deoxyribonuclease I, MgCl2 or protease inhibitor and the NaCl concentration of the buffer was adjusted according to the requirements for charging the protein onto the column. Each column was eluted with a NaCl gradient which varied in length from 5-50 column volumes depending on the column type. After the final chromatography step, the resulting purity of the enzyme is >90% based on SDS-PAGE analysis. The enzyme was aliquoted and stored at −80° C.
Standard HCV NS5B RdRp enzyme assay. HCV RdRp genotype 1b assays were run in a final volume of 60 μl in 96 well plates (Costar 3912). The assay buffer is composed of 20 mM Hepes, pH 7.5, 2.5 mM KCl, 2.5 mM MgCl2, 1 mM DTT, 1.6 U RNAse inhibitor (Promega N2515), 0.1 mg/ml BSA (Promega R3961), and 2% glycerol. All compounds were serially diluted (3-fold) in DMSO and diluted further in water such that the final concentration of DMSO in the assay was 2%. HCV RdRp genotype 1b enzyme was used at a final concentration of 28 nM. A polyA template was used at 6 nM, and a biotinylated oligo-dT12 primer was used at 180 nM final concentration. Template was obtained commercially (Amersham 27-4110). Biotinylated primer was prepared by Sigma Genosys. 3H-UTP was used at 0.6 μCi (0.29 μM total UTP). Reactions were initiated by the addition of enzyme, incubated at 30° C. for 60 min, and stopped by adding 25 μl of 50 mM EDTA containing SPA beads (4 μg/μl, Amersham RPNQ 0007). Plates were read on a Packard Top Count NXT after >1 hr incubation at room temperature.
Modified HCV NS5B RdRp enzyme assay. A modified enzyme assay was performed essentially as described for the standard enzyme assay except for the following: The biotinylated oligo dTl2 primer was precaptured on streptavidin-coated SPA beads by mixing primer and beads in assay buffer and incubating at room temperature for one hour. Unbound primer was removed after centrifugation. The primer-bound beads were resuspended in 20 mM Hepes buffer, pH 7.5 and used in the assay at final concentrations of 20 nM primer and […] beads. Order of addition in the assay: enzyme (14 nM) was added to diluted compound followed by the addition of a mixture of template (0.2 nM), 3H-UTP (0.6 μCi, 0.29 μM), and primer-bound beads, to initiate the reaction; concentrations given are final. Reactions were allowed to proceed for 4 hours at 30° C.
IC50 values for compounds were determined using seven different. […]

A word on the EC50: it is the concentration giving half of the maximal effect. A high value points to a need for much substance. As usually defined, the IC50 is the midpoint of a concentration-inhibition curve. Read a high IC50 as a need for much substance. With `COc1ccc2c(c1)C1CN(C(=O)[C@@H]3CCCN3C)CC1(C(=O)N(C)C)Cn1c-2c(C2CCCCC2)c2ccc(C(=O)NS(=O)(=O)N(C)C)cc21` (mixture of isomers) [Example 19, rac-(3aR,14bR)-10-cyclohexyl-N^7-(dimethylsulfamoyl)-13-methoxy-N^3a,N^3a-dimethyl-2-(1-methyl-L-prolyl)-1,2,3,14b-tetrahydroindolo[2,1-a]pyrrolo[3,4-d][2]benzazepine-3a,7(4H)-dicarboxamide], in the experiment with HCV replicon cells, the EC50 turned out to be 63 nM. The compound also had an IC50 against HCV NS5B of 61 nM.
As for `COc1ccc2c(c1)C1CN(C(C)CN(C)C)CC1(C(=O)N(C)C)Cn1c-2c(C2CCCCC2)c2ccc(C(=O)NS(=O)(=O)N(C)C)cc21` (racemic) [Example 17a, rac-(3aR,14bR)-10-cyclohexyl-2-(2-(dimethylamino)-1R-methylethyl)-N^7-(dimethylsulfamoyl)-13-methoxy-N^3a,N^3a-dimethyl-1,2,3,14b-tetrahydroindolo[2,1-a]pyrrolo[3,4-d][2]benzazepine-3a,7(4H)-dicarboxamide], the EC50 in the experiment with HCV replicon cells (reported as class) is 20 to 500 nM. Also, on HCV NS5B (reported as class), the IC50 lay in the range of 20 to 500 nM.
For the compound `COc1ccc2c(c1)C1CN(C(=O)N(C)C)CC1(C(=O)N(C)C)Cn1c-2c(C2CCCCC2)c2ccc(C(=O)NS(=O)(=O)N(C)C)cc21` (racemic) [Example 8, rac-(3aR,14bR)-10-cyclohexyl-N^7-(dimethylsulfamoyl)-13-methoxy-N^2,N^2,N^3a,N^3a-tetramethyl-1,14b-dihydroindolo[2,1-a]pyrrolo[3,4-d][2]benzazepine-2,3a,7(3H,4H)-tricarboxamide], in the experiment on HCV replicon cells (reported as class), the EC50 fell in the range of 20 to 500 nM. In addition, the IC50 against HCV NS5B (reported as class) was in the range of 20 to 500 nM.
